Consider six compounds from PMC10878751, “N-Substituted Phenylhydrazones Kill the Ring Stage of Plasmodium falciparum” (BioMed Research International, 2024).

A short description of one data set: MTT cytotoxicity assay. As for the experimental part: (§1) The SYBR green and cytotoxicity assay procedure to determine the potency of the phenylhydrazones was according to [16].
(§2) Following that, 100 μl of uninfected red blood cells was put to each well. Compound, culture medium, and uninfected red blood cells were subtracted from the optical densities by running control experiments for each parameter independently alongside the main experiment. The plates were then incubated for 72 hours at 37°C in a humidified incubator with 5% O2 and CO2 before 20 μl of 2.5 mg/ml MTT (in phosphate-buffered saline) solution was added to each well, and the plate was incubated for another 2 hours. After incubation, aliquots of culture medium (150 μl) were taken and discarded from each well, and 200 μl of Triton X-100 in acidified isopropanol was added to each well to dissolve any formazan produced. The plates were then maintained at room temperature in the dark for 24 hours before the optical densities of the wells were measured using a plate reader at 570 nm. […] The CC50 values were compared to the standard values.
A general note: Formazan colour is commonly taken as a measure of viable cells.

Data set [1] relates to DD2 chloroquine-resistance strain. Briefly: SYBR green antimalarial assay, DD2 strain. As for the experimental part:
as §1
(§3) One-milligram (1 mg) powder of each compounds was weighed and transferred into dimethylsulphoxide (DMSO) (1 ml of 0.5% v/v) to yield a stock concentration of 1000 μg/ml. The stock solution was vortexed well to dissolve the compounds and later filtered through 0.2 μm pore filter unit and then stored in a -20°C freezer until use. The stock products were diluted 10-fold to obtain a working solution of 100 μg/ml. This working solution was further serially diluted […] to obtain the concentrations 100 μg/ml, 50 μg/ml, 25 μg/ml, 12.5 μg/ml, 6.25 μg/ml, 3.13 μg/ml, 1.56 μg/ml, 0.78 μg/ml, and 0.39 μg/ml.
(§4) Continuous P. falciparum asexual cultures were maintained in vitro in an atmosphere of 93% N2, 4% CO2, and 3% O2 at 37°C in complete medium (CM) (10.44 g/liter Roswell Park Memorial Institute Medium (RPMI) 1640, 5.94 g/liter N-2-hydroxyethylpiperazine-N-2-ethane sulfonic acid (HEPES), 5 g/liter AlbuMAX II, 50 mg/liter hypoxanthine, and 2.1 g/liter sodium bicarbonate). Parasites were cultured in O+ RBCs and maintained in the incubator with daily media change until a parasitemia of more than 5% ring stages was obtained. The culture was then treated with 5% sorbitol to obtain synchronized ring stage, and parasite growth was monitored for some few days by estimating percentage (%) parasitemia using Giemsa-stained slides and light microscope with 100x magnification until parasitemia of more than 5% was recorded. Parasite suspension of 2% hematocrit with 1% parasitemia was prepared using uninfected blood to make a total of 14 ml in a complete culture medium for the plating. Compound plating and SYBR green assay were according to [16].
(§5) One hundred (100) microliters of each nine dilutions (100 μg/ml, 50 μg/ml, 25 μg/ml, 12.5 μg/ml, 6.25 μg/ml, 3.13 μg/ml, 1.56 μg/ml, 0.78 μg/ml, and 0.39 μg/ml) was plated in duplicate in a 96-well coastal plate. 15 ng/ml of artesunate was serially diluted and plated alongside with the compounds as a standard antimalarial control drug. One hundred of parasite mix with 2% hematocrit and 1% parasitemia were added to each treated well starting from the 2nd well to the 10th well. One hundred microliters of parasite mix without any drug was added to the 11th well as a negative control, and the procedure was repeated for the rest of other extract/compounds. The plates were arranged in a modular chamber and gassed for 5 min with gas mixture of 5% oxygen, 5% carbon dioxide, and 90% nitrogen and then kept at 37°C for 72 h.
(§6) The plates were harvested after 72 h, and the assays were paused by adding 100 μl lysing buffer containing SYBR green to each well and was thoroughly and gently mixed to avoid production of bubbles. The plates were then incubated in the dark for 30-60 minutes before reading the assay using FLUOstar OPTIMA Fluorometer plate reader with control software version 2.20 at 470 nm and 520 nm wavelengths.
(§7) Each compound was tested in triplicate concentration that inhibits asexual Plasmodium falciparum parasite by 50% (IC50) estimated from dose-response curves by nonlinear regression analysis using GraphPad Prism version 7.0 software (GraphPad software, San Diego, CA, USA). Cytotoxicity analysis was carried out using Microsoft Excel Version 2010.

Data set [2] relates to 3D7 chloroquine-sensitive strain of Plasmodium falciparum. Briefly: SYBR green antimalarial assay, 3D7 strain. As for the experimental part:
as §1, §3, §4, §5, §6, §7

The test system of data set [3] is uninfected red blood cells. Put plainly: MTT cytotoxicity assay. Conditions: uninfected red blood cells, 72 h, MTT. As for the experimental part: as §1, §2
Setting [4] is: Plasmodium falciparum, DD2, 72 h, read-out: DD2 IC50.
Where [5] appears, read: Plasmodium falciparum, DD2, read-out: pIC50 Dd2 (converted).
Setting [6] is: Plasmodium falciparum, 3D7, 72 h, read-out: 3D7 IC50.
[7] abbreviates: Plasmodium falciparum, 3D7, read-out: pIC50 3D7 (converted).

Where two headings read alike, the source gives them in different places. Bounds are passed on as bounds.

As usually defined, the CC50 is the concentration that lowers cell viability or growth by half.

`COc1cc(C=NNc2ccc([N+](=O)[O-])cc2[N+](=O)[O-])ccc1O` [PHN3] yielded a CC50 at 72 h in the data set “MTT cytotoxicity assay” of 132 µM. The IC50 is 2.415 ± 0.01 µM in data set [1] (setting [4]), 6.61 µM in data set [1] (setting [5]), 6.6 ± 0.03 µM in data set [2] (setting [6]) and 18.2 µM in data set [2] (setting [7]). For the same compound, the “SI = CC50/IC50 for DD2” value in data set [1] (selectivity index) came to 55. Moreover, the “SI = CC50/IC50 for 3D7” value in data set [2] (selectivity index) came to 20.
In “MTT cytotoxicity assay”, `O=[N+]([O-])c1ccc(NN=Cc2ccc(O)cc2O)c([N+](=O)[O-])c1` [PHN2, 4-(2-(2,4-Dinitrophenylhydrazono) Methyl) Benzene-1,3-diol] showed a CC50 at 72 h of 119 µM. Moreover, the IC50 in data set [1] (setting [4]) is 16.2 ± 0.17 µM; in data set [1] (setting [5]) it was 40.7 µM; in data set [2] (setting [6]) it was 14.12 ± 0.04 µM; in data set [2] (setting [7]) it was 269 µM. Besides, in data set [1] (selectivity index), the “SI = CC50/IC50 for DD2” value is given as 7. Besides, the “SI = CC50/IC50 for 3D7” value in data set [2] (selectivity index) is 8.
`C[C@H]1[C@H](OC(=O)CCC(=O)O)O[C@@H]2O[C@@]3(C)CC[C@H]4[C@H](C)CC[C@@H]1[C@@]24OO3` [Artesunate, reference compound] came in with a CC50 at 72 h in “MTT cytotoxicity assay” (uninfected red blood cells) of 84.7 µM. Moreover, the “SI = CC50/IC50 for DD2” value in data set [1] is >1000. Besides, the IC50 in data set [1] (setting [4]) is 0.005063 ± 2.3e-05 µM; in data set [2] (setting [6]), 0.004688 ± 1.7e-05 µM. Besides, the “SI = CC50/IC50 for 3D7” value in data set [2] is >1000.
Regarding “1-Benzylidene-2-(2,4-dinitrophenyl)hydrazine [PHN5]”, in data set [3], the CC50 came out at 112 µM. Also, the “pIC50 Dd2” value in data set [1] (calculated from in vitro IC50s, DD2 CR strain) was 4.71. Besides, the IC50 in data set [1] (read-out: DD2 IC50, DD2 chloroquine-resistant strain, ring stage, 72 h, SYBR green) was 6.591 ± 0.06 µM; in data set [2] (read-out: 3D7 IC50, 3D7 chloroquine-sensitive strain, ring stage, 72 h, SYBR green), 19.02 ± 0.02 µM. In addition, the “pIC50 3D7” value in data set [2] (calculated from in vitro IC50s, 3D7 CS strain) is on record as 4.25.
`O=[N+]([O-])c1ccc(NN=Cc2cccc(O)c2)c([N+](=O)[O-])c1` [PHN6, 3-(2-2(4-Dinitrophenyl) Hydrazono) Methylphenol]: the CC50 at 72 h in the data set “MTT cytotoxicity assay” amounted to 101 µM. Moreover, the IC50 in data set [1] (setting [4]) was 5.12 ± 0.07 µM; in data set [1] (setting [5]), 17 µM; in data set [2] (setting [6]), 1.29 ± 0.05 µM; in data set [2] (setting [7]), 4.27 µM. Also, the “SI = CC50/IC50 for DD2” value in data set [1] (selectivity index) amounted to 19. In addition, the “SI = CC50/IC50 for 3D7” value in data set [2] (selectivity index) came out at 79.
With `O=[N+]([O-])c1ccc(NN=C(c2ccccc2)c2ccccc2)c([N+](=O)[O-])c1` [PHN1, (2,4-Dinitrophenyl)-2-(diphenylmethylene) Hydrazine], the CC50 at 72 h in the data set “MTT cytotoxicity assay” was found to be 106 µM. For the same compound, the IC50 in data set [1] (setting [4]) was 34.89 ± 0.17 µM; in data set [1] (setting [5]), 89.1 µM; in data set [2] (setting [6]) it was 31 ± 0.37 µM. Also, the “SI = CC50/IC50 for DD2” value in data set [1] (selectivity index) amounted to 3. The “SI = CC50/IC50 for 3D7” value in data set [2] (selectivity index) is 3.
